Tests used:
rat TRPV1 [1] = biological target: T1, rat TRPV1 (Rattus norvegicus, UniProt O35433); test: YO-PRO-1 uptake (imaging / plate-reader) in TRPV1-expressing cells; type: cell-based; settings: for fold decrease of t1/2 to maximal YO-PRO-1 fluorescence, pretreated vs not pretreated cells: 50 μM agonist pre-incubated two hours then removed, 5 μM YO-PRO-1, n=3; for agonist-induced YO-PRO-1 uptake: extracellular application
T1 construct: expressed in transfected cells
Description: Human embryonic kidney (HEK) 293 cells stably expressing rat TRPV1 were grown in DMEM/F12 with 10% newborn calf serum and antibiotics and cultured in a 5% CO2 aerated incubator at 37° C. Cells were trypsinized and plated on 96-well plates or matrix-coated coverslips for Ca^2+ imaging, YO-PRO-1 imaging, plate-reader assays, or electrophysiological recording. Calcium imaging, fluorescent dye uptake assays, and electrophysiological experiments were all performed 24-72 hours after plating.
Cells were plated in 96-well plates to near confluence. Images were acquired at a rate of 1 frame per 15 sec. The fields were illuminated for 2 sec for each frame. The fluorescent intensity was measured at the emission wavelength of 510/20 nm. 2× concentration of agonists and 10 μM YO-PRO-1 were mixed and added at equal volume to a bath solution with the same electrolyte composition except omitting CaCl2.
TRPV1 cell lines were passed into 96-well plate, grown to confluence, and assayed in a physiological Ringer solution. 50 μl of solution as used for YO-PRO-1 imaging with agonists of various concentrations was added to each well. Fluorescence intensity (485-nm excitation, 516-nm emission) was monitored by Multi-detection Microplate Reader (BioTek). For normalization, cells were fixed by 5% PFA at the end of experiments and counted total fluorescence from each well after adding digitonin solution (Assay Designs) with 5 μM YO-PRO-1.

rat TRPV1 [2] = biological target: T1, rat TRPV1; test: Electrophysiology of membrane patches from HEK cells expressing rat TRPV1; type: cell-based
rat TRPV1 [3] = biological target: T1, rat TRPV1; test: Ca^2+ imaging (Fura-2) in HEK293 cells stably expressing rat TRPV1; type: cell-based; settings: for intracellular Ca^2+ level on extracellular application: ratiometric fura-2 imaging
[4] = test system: voltage gated Na+ channels; test: Neuronal Na+ currents after cap-ET and/or QX-314 loading, whole-cell recording; settings: PAO or cap-ET alone (10 μM), then 5 mM QX-314
rTRPV1 Y511A = biological target: T2, rTRPV1 Y511A (Rattus norvegicus, UniProt O35433, Y511A); test: YO-PRO-1 entry in HEK cells expressing rTRPV1 Y511A; type: cell-based
T2 construct: expressed in transfected cells; host or cells: HEK cells
T2 sequence (O35433 whole entry Y511A): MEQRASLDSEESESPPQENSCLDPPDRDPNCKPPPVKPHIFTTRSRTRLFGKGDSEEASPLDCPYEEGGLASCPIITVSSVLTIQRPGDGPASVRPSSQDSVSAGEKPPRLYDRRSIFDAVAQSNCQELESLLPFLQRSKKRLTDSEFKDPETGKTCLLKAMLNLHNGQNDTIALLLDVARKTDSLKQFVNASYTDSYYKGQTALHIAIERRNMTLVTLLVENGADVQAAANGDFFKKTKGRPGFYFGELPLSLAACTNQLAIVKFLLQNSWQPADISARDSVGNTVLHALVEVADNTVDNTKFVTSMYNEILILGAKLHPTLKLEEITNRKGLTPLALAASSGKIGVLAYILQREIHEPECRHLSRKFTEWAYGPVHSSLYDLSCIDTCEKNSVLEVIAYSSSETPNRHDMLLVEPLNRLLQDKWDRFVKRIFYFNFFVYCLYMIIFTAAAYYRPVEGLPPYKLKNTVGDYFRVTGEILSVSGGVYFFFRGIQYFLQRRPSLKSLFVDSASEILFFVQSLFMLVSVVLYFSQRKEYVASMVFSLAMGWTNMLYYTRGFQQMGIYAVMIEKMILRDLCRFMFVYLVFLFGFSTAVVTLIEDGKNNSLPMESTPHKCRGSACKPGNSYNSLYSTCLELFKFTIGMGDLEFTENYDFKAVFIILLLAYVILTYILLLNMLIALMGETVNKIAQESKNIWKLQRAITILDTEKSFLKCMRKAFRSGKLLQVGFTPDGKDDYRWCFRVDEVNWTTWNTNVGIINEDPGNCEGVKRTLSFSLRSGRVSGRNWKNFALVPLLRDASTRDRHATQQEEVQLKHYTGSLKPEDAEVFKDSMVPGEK
Description: Cells were plated in 96-well plates to near confluence. Images were acquired at a rate of 1 frame per 15 sec. The fields were illuminated for 2 sec for each frame. […] TRPV1 cell lines were passed into 96-well plate, grown to confluence, and assayed in a physiological Ringer solution. 50 μl of solution as used for YO-[MUT] imaging with agonists of various concentrations was added to each well. Fluorescence intensity (485-nm excitation, 516-nm emission) was monitored by Multi-detection Microplate Reader (BioTek). For normalization, cells were fixed by 5% PFA at the end of experiments and counted total fluorescence from each well after adding digitonin solution (Assay Designs) with 5 μM YO-[MUT].

T1 sequence (O35433 whole entry): as the sequence (O35433 whole entry Y511A) above, with A511Y counted along it

Structure (SMILES): CCCC(=O)O[C@@H]1[C@@H](C)[C@@]2(O)[C@@H](C=C(CO)C[C@]3(O)C(=O)C(C)=C[C@@H]23)[C@@H]2C(C)(C)[C@]12OC(=O)CCC [PDBu]
- effect on potency of capsaicin or cap-ET for YO-PRO-1 uptake (rat TRPV1 [1]): increased the potency

Structure (SMILES): N.N.N.N.N.N.N.N.N.N.N.N.N.N.[Cl-].[Cl-].[Cl-].[Cl-].[Cl-].[Cl-].[O-2].[O-2].[Ru+3].[Ru+3].[Ru+4] [RR, ruthenium red]
- effect on capsaicin-mediated YO-PRO-1 entry (rat TRPV1 [1]; 10 μM): effectively suppressed YO-PRO-1 entry

Structure (SMILES): C[n+]1c(C=C2C=CN(CCC[N+](C)(C)C)c3ccccc32)oc2ccccc21 [YO-PRO-1, reference compound]
- block of TRPV1 currents evoked by 10 μM capsaicin (rat TRPV1 [2]; 5 μM, inside-out patch): reversibly blocked

Structure (SMILES): COc1cc(CNC(=O)CCCC/C=C/C(C)C)ccc1OCC[N+](C)(C)C [cap-ET, capsaicin O-ethyl (trimethyl-ammonium) acetate]
- rank of potency and efficacy in Ca^2+ signals among the three charged capsaicinoids (rat TRPV1 [3]): most potent and efficacious among the three
- intracellular Ca^2+ level on extracellular application (rat TRPV1 [3]): effectively raised intracellular Ca^2+ levels
- Icap-ET/Icap (ionic current relative to capsaicin), PAO-sensitized TRPV1 (rat TRPV1 [2]): 3.0±0.9%
- electric current induced, TRPV1 sensitized by 10 μM PAO (rat TRPV1 [2]; 100 μM cap-ET): recordable but small current
- block of capsaicin-induced TRPV1 currents (rat TRPV1 [2]; 100 μM cap-ET co-applied with 30 μM capsaicin, from outside or inside): strong voltage-dependent block
- electric current induced on cytoplasmic side of inside-out patch (rat TRPV1 [2]; 100 μM cap-ET, compared to 30 μM capsaicin): barely detectable electric current
- fold decrease of t1/2 to maximal YO-PRO-1 fluorescence, pretreated vs not pretreated cells (rat TRPV1 [1]): 5.37±0.99 fold
- agonist-induced YO-PRO-1 uptake (rat TRPV1 [1]): induced YO-PRO-1 uptake
- hydrophilicity relative to capsaicin, based on water/octanol partitioning: over 300 fold
- Na+ current density after QX-314, agent alone [4]: comparable to cells not exposed to QX-314

Structure (SMILES): CC[N+](CC)(CC)CCOc1ccc(CNC(=O)CCCC/C=C/C(C)C)cc1OC [cap-ETEA, capsaicin O-tetra-ethylammonium acetate]
- intracellular Ca^2+ level on extracellular application (rat TRPV1 [3]): effectively raised intracellular Ca^2+ levels

Structure (SMILES): COc1cc(CNC(=O)CCCC/C=C/C(C)C)ccc1O [capsaicin]
- intracellular Ca^2+ level on extracellular application (rat TRPV1 [3]): large intracellular Ca^2+ rise
- fold decrease of t1/2 to maximal YO-PRO-1 fluorescence, pretreated vs not pretreated cells (rat TRPV1 [1]): 1.14±0.04 fold
- agonist-induced YO-PRO-1 uptake (rat TRPV1 [1]): induced YO-PRO-1 uptake
- YO-PRO-1 transport via rTRPV1 Y511A mutant (rTRPV1 Y511A): failed to elicit YO-PRO-1 transport
